Assay: fu,PL from membrane affinity to PL-covered silica beads, PS
Assay type: in vitro ADME
Conditions: silica beads covered with phosphatidylserine (PS), Transil; beads coated with pure PS, 15 min incubation; read-out: fu,PS Geomean
Experimental: (§1) f u,PL was derived from membrane affinity measurements to beads covered with PLs as previously described ([6]).
(§2) Cbuffer was quantified by LC-MS/MS in samples of the supernatant that was obtained after 15 min incubation time on an orbital shaker at 1000 rpm and subsequent separation from the beads by centrifugation at 750 x g. […] Unspecific binding was evaluated by incubations into wells without added lipids.

fraction unbound at 15 min | SMILES
0.0019 | COC(=O)CCc1ccc(OCC(O)CNC(C)C)cc1 (stereo not drawn) [Esmolol]
0.0001 | CCC(C)(C)C(=O)O[C@H]1C[C@@H](C)C=C2C=C[C@H](C)[C@H](CC[C@@H]3C[C@@H](O)CC(=O)O3)[C@H]21 [Simvastatin]
0.0006 | CCN(CC)CCCC(C)Nc1ccnc2cc(Cl)ccc12 (stereo not drawn) [Chloroquine]

SMILES | fraction unbound at 15 min
Cn1c(=O)c2c(ncn2C)n(C)c1=O [Caffeine] | 0.0025

Assay: fu,PL from membrane affinity to PL-covered silica beads, PE
Assay type: in vitro ADME
Conditions: beads coated with pure PE, 15 min incubation; read-out: fu,PE Geomean
Experimental: as §1, §2

fraction unbound at 15 min | SMILES
0.0126 | COC(=O)CCc1ccc(OCC(O)CNC(C)C)cc1 (stereo not drawn) [Esmolol]
0.0001 | CCC(C)(C)C(=O)O[C@H]1C[C@@H](C)C=C2C=C[C@H](C)[C@H](CC[C@@H]3C[C@@H](O)CC(=O)O3)[C@H]21 [Simvastatin]
0.0032 | CCN(CC)CCCC(C)Nc1ccnc2cc(Cl)ccc12 (stereo not drawn) [Chloroquine]

SMILES | fraction unbound at 15 min
Cn1c(=O)c2c(ncn2C)n(C)c1=O [Caffeine] | 0.0154

Assay: fu,PL from membrane affinity to PL-covered silica beads, mixed beads
Assay type: in vitro ADME
Conditions: examples of Fig. 3c, individual PL beads and mixed beads
Experimental: as §1, §2

fu,PL (in words) | SMILES
intermediate | COC(=O)CCc1ccc(OCC(O)CNC(C)C)cc1 (stereo not drawn) [Esmolol]

Same assay, conditions: mixed beads PC:PE:PS:PI 52:22:12:14 mol%, 15 min incubation; read-out: fu,mixed bead Geomean

fraction unbound at 15 min | SMILES
0.0084 | COC(=O)CCc1ccc(OCC(O)CNC(C)C)cc1 (stereo not drawn) [Esmolol]
0.0001 | CCC(C)(C)C(=O)O[C@H]1C[C@@H](C)C=C2C=C[C@H](C)[C@H](CC[C@@H]3C[C@@H](O)CC(=O)O3)[C@H]21 [Simvastatin]
0.0044 | CCN(CC)CCCC(C)Nc1ccnc2cc(Cl)ccc12 (stereo not drawn) [Chloroquine]

SMILES | fraction unbound at 15 min
Cn1c(=O)c2c(ncn2C)n(C)c1=O [Caffeine] | 0.0145

Assay: fu,cell by equilibrium dialysis of cell homogenate, MDCK
Assay type: in vitro ADME
Conditions: dog, dialysis 4 h 37°C, 10 million cells/mL homogenate, read-out: fu,MDCK Geomean
Experimental: (§3) fu,cell was measured in cassette-mode as previously described with minor modifications ([9]). Briefly, 10 million cells/mL were suspended in HBSS buffered with 10 mM HEPES and homogenized on ice by sonication (VCX 750 Sonicator, 3 mm probe, 20% intensity, 10 s). Up to 8 compounds were combined randomly and spiked into the homogenate for a final concentration of 0.5 μM. Equilibrium dialysis was performed in a Rapid Equilibirum device (Thermo Fisher Scientific) against blank HBSS buffered with 10 mM HEPES, for 4 h at 37°C on an orbital shaker at 900 rpm. Stability controls were kept at 4° and 37°C for the duration of the experiment. The concentration in both dialysis chambers was quantified by extracting the compound with acetonitrile/water (60/40) containing internal standard. Matrixes were matched with blank buffer or cell homogenate, respectively. LC-MS/MS parameters are available in Table S9. All experiments were carried out in triplicates and at least at two independent occasions.
(§4) (3), assuming the Vcell to be equal to 6.5 μL/mg protein ([6],[10]). Protein content in the cell homogenates was determined at each experiment using the BCA Protein Assay Reagent Kit (Thermo Fisher Scientific Inc.).3 DP=1/Vcell

fraction unbound at 4 h, 0.5 μM | SMILES
0.35 | COC(=O)CCc1ccc(OCC(O)CNC(C)C)cc1 (stereo not drawn) [Esmolol]
0.176 | CCN(CC)CCCC(C)Nc1ccnc2cc(Cl)ccc12 (stereo not drawn) [Chloroquine]

SMILES | fraction unbound at 4 h, 0.5 μM
Cn1c(=O)c2c(ncn2C)n(C)c1=O [Caffeine] | 0.0593

Assay: fu,cell by equilibrium dialysis of cell homogenate, K562
Assay type: in vitro ADME
Conditions: human, dialysis 4 h 37°C, 10 million cells/mL homogenate, read-out: fu,K562 Geomean
Experimental: as §3
(§5) The unbound fraction in the cell homogenate (fu,hom) was determined according to Eq. (1):1 fu,hom=Cbuffer/Chom and the fraction of unbound compound in the cell (fu,cell) was calculated by correcting for homogenate dilution according to Eq. (2):2 fu,cell=1/DP∙1/fu,hom−1+1 where the dilution constant DP was calculated using Eq. (3), assuming the Vcell to be equal to 6.5 μL/mg protein ([6],[10]). Protein content in the cell homogenates was determined at each experiment using the BCA Protein Assay Reagent Kit (Thermo Fisher Scientific Inc.).3 DP=1/Vcell

fraction unbound at 4 h, 0.5 μM | SMILES
1 | COC(=O)CCc1ccc(OCC(O)CNC(C)C)cc1 (stereo not drawn) [Esmolol]
0.0032 | CCC(C)(C)C(=O)O[C@H]1C[C@@H](C)C=C2C=C[C@H](C)[C@H](CC[C@@H]3C[C@@H](O)CC(=O)O3)[C@H]21 [Simvastatin]
0.356 | CCN(CC)CCCC(C)Nc1ccnc2cc(Cl)ccc12 (stereo not drawn) [Chloroquine]

SMILES | fraction unbound at 4 h, 0.5 μM
Cn1c(=O)c2c(ncn2C)n(C)c1=O [Caffeine] | 0.214

Assay: fu,cell by equilibrium dialysis of cell homogenate, LLC-PK1
Assay type: in vitro ADME
Conditions: pig, dialysis 4 h 37°C, 10 million cells/mL homogenate, read-out: fu,LLCPK1 Geomean
Experimental: as §3, §5

fraction unbound at 4 h, 0.5 μM | SMILES
0.566 | COC(=O)CCc1ccc(OCC(O)CNC(C)C)cc1 (stereo not drawn) [Esmolol]
0.0009 | CCC(C)(C)C(=O)O[C@H]1C[C@@H](C)C=C2C=C[C@H](C)[C@H](CC[C@@H]3C[C@@H](O)CC(=O)O3)[C@H]21 [Simvastatin]
0.0783 | CCN(CC)CCCC(C)Nc1ccnc2cc(Cl)ccc12 (stereo not drawn) [Chloroquine]

SMILES | fraction unbound at 4 h, 0.5 μM
Cn1c(=O)c2c(ncn2C)n(C)c1=O [Caffeine] | 0.115

Assay: fu,cell by equilibrium dialysis of cell homogenate, Caco-2
Assay type: in vitro ADME
Conditions: human, Caco-2 cell homogenate, dialysis 4 h 37°C, 10 million cells/mL homogenate, read-out: fu,Caco-2 Geomean
Experimental: as §3, §4

fraction unbound at 4 h, 0.5 μM | SMILES
0.566 | COC(=O)CCc1ccc(OCC(O)CNC(C)C)cc1 (stereo not drawn) [Esmolol]
0.0777 | CCN(CC)CCCC(C)Nc1ccnc2cc(Cl)ccc12 (stereo not drawn) [Chloroquine]

Assay: fu,cell by equilibrium dialysis of cell homogenate, primary human hepatocytes
Assay type: in vitro ADME
Conditions: primary human hepatocyte homogenate, dialysis 4 h 37°C, 10 million cells/mL homogenate, read-out: fu,HH Geomean
Experimental: as §3, §5

SMILES | fraction unbound at 4 h, 0.5 μM
Cn1c(=O)c2c(ncn2C)n(C)c1=O [Caffeine] | 0.248
CCN(CC)CCCC(C)Nc1ccnc2cc(Cl)ccc12 (stereo not drawn) [Chloroquine] | 0.0824

Assay: fu,PL from membrane affinity to PL-covered silica beads, PC
Assay type: in vitro ADME
Conditions: silica beads covered with phosphatidylcholine (PC), Transil; beads coated with pure PC, 15 min incubation; read-out: fu,PC Geomean
Experimental: as §1, §2

fraction unbound at 15 min | SMILES
0.008 | COC(=O)CCc1ccc(OCC(O)CNC(C)C)cc1 (stereo not drawn) [Esmolol]
0.001 | CCC(C)(C)C(=O)O[C@H]1C[C@@H](C)C=C2C=C[C@H](C)[C@H](CC[C@@H]3C[C@@H](O)CC(=O)O3)[C@H]21 [Simvastatin]
0.0014 | CCN(CC)CCCC(C)Nc1ccnc2cc(Cl)ccc12 (stereo not drawn) [Chloroquine]

SMILES | fraction unbound at 15 min
Cn1c(=O)c2c(ncn2C)n(C)c1=O [Caffeine] | 0.0096

Assay: fu,cell by equilibrium dialysis of cell homogenate, HEK293
Assay type: in vitro ADME
Conditions: human, dialysis 4 h 37°C, 10 million cells/mL homogenate, read-out: fu,HEK293 Geomean
Experimental: as §3, §5

fraction unbound at 4 h, 0.5 μM | SMILES
0.196 | COC(=O)CCc1ccc(OCC(O)CNC(C)C)cc1 (stereo not drawn) [Esmolol]
0.0015 | CCC(C)(C)C(=O)O[C@H]1C[C@@H](C)C=C2C=C[C@H](C)[C@H](CC[C@@H]3C[C@@H](O)CC(=O)O3)[C@H]21 [Simvastatin]
0.0824 | CCN(CC)CCCC(C)Nc1ccnc2cc(Cl)ccc12 (stereo not drawn) [Chloroquine]

SMILES | fraction unbound at 4 h, 0.5 μM
Cn1c(=O)c2c(ncn2C)n(C)c1=O [Caffeine] | 0.248

Assay: fu,cell by equilibrium dialysis of cell homogenate, HL60
Assay type: in vitro ADME
Conditions: human, dialysis 4 h 37°C, 10 million cells/mL homogenate, read-out: fu,HL60 Geomean
Experimental: as §3, §5

fraction unbound at 4 h, 0.5 μM | SMILES
0.676 | COC(=O)CCc1ccc(OCC(O)CNC(C)C)cc1 (stereo not drawn) [Esmolol]
0.0023 | CCC(C)(C)C(=O)O[C@H]1C[C@@H](C)C=C2C=C[C@H](C)[C@H](CC[C@@H]3C[C@@H](O)CC(=O)O3)[C@H]21 [Simvastatin]

Assay: fu,cell by equilibrium dialysis of cell homogenate, A549
Assay type: in vitro ADME
Conditions: human, dialysis 4 h 37°C, 10 million cells/mL homogenate, read-out: fu,A549 Geomean
Experimental: as §3, §5

fraction unbound at 4 h, 0.5 μM | SMILES
0.922 | COC(=O)CCc1ccc(OCC(O)CNC(C)C)cc1 (stereo not drawn) [Esmolol]
0.0002 | CCC(C)(C)C(=O)O[C@H]1C[C@@H](C)C=C2C=C[C@H](C)[C@H](CC[C@@H]3C[C@@H](O)CC(=O)O3)[C@H]21 [Simvastatin]
0.0793 | CCN(CC)CCCC(C)Nc1ccnc2cc(Cl)ccc12 (stereo not drawn) [Chloroquine]

SMILES | fraction unbound at 4 h, 0.5 μM
Cn1c(=O)c2c(ncn2C)n(C)c1=O [Caffeine] | 0.0398

— paper PMC6838048, “A Cell-Free Approach Based on Phospholipid Characterization for Determination of the Cell Specific Unbound Drug Fraction (fu,cell)” (Pharmaceutical Research, 2019)
